Legend:
KRAS(G12C) = KRAS(G12C) (Homo sapiens, UniProt P01116, G12C); experiment: KRAS(G12C)/SOS1 homogeneous time-resolved fluorescence (HTRF) assay; parameters: purchased Cisbio 63ADK000CB16PEG; settings: absence of GTP, 4° C. for 3 hr, read-out: KRAS (G12C) binding
Description: KRAS(G12C)/SOS1 Homogeneous Time-Resolved Fluorescence (HTRF) Assay
Binding of test compounds to KRAS(G12C) protein, which in turn blocks KRAS(G12C) interaction with the SOS1 protein, was measured in the absences of GTP by homogeneous time-resolved fluorescence (HTRF) using the KRAS-G12C/SOS1 Binding Assay Kit (Cisbio, #63ADK000CB16PEG), following the manufacturer's instructions, except as noted. 3-fold serial dilutions of each test compound were prepared ranging from […] to 1.02 nM. The test compound was mixed and incubated with reaction components, incubated in a sealed plate at 4° C. for 3 hr and fluorescence was measured using a PerkinElmer Envision plate reader.

[1] = tested on: MIA PaCa-2 human pancreatic carcinoma; experiment: MIA PaCa-2 CCK-8 proliferation assay; assay type: cell-based; settings: Homo sapiens, MIA PaCa-2, 72 h, MIA PaCa-2 cells
Description: The following cancer cell lines were employed: BT-474 human breast carcinoma (ATCC, #HTB-20); MIA PaCa-2 human pancreatic carcinoma [2 copies KRAS(G12C)](ATCC, #CRL-1420); NCI-H23 human non-small cell lung cancer [1 copy KRAS(G12C)](ATCC, #CRL-5800); NCI-H358 human non-small cell lung cancer [1 copy KRAS(G12C)](ATCC, #CRL-5807); LU65A human lung carcinoma (Pharmaron, Beijing, China). Cell lines were cultured essentially according to ATCC and Pharmaron recommendations.
Cancer Cell Line Proliferation (CCK-8) Assays
3-fold serial dilutions of each test compound were prepared ranging from 20 μM to 1.02 nM.
% Inhibition=100−(D−B)/(S−B)*100%. • S: Absorbance of cells treated with DMSO • D: Absorbance of compound-treated cells • B: Absorbance of medium with DMSO without cells

HSP90a protein = molecular target: T1, HSP90a protein (Homo sapiens, UniProt P07900); experiment: HSP90α-binding fluorescent polarization (FP) assay, BODIPY-labeled RNK04010 probe; settings: FP competition with RNK04010 (BODIPY-labeled), 5 nM, 300 min at 25° C.
T1 construct: purchased BPS Bioscience 50298
Description: HSP90α-Binding Fluorescent Polarization (FP) Assay
Binding of test compounds to HSP90a protein was measured by fluorescent polarization (FP) using the HSP90a (N-terminal) Assay Kit (BPS Bioscience, #50298), following the manufacturer's instructions, except as noted. Fluorescently labeled HSP90-binding compounds, either the provided FITC-geldanamycin (5 nM final concentration) or RNK04010, a triazolone-based HSP90 binding small molecule labeled with BODIPY through a piperizine-phenyl linker (5 nM final concentration) were employed. A 2.5-fold serial dilution of each test compound ranging from 20 μM to 5.2 nM was assayed for binding to HSP90a. After the final step of adding HSP90a protein to each assay well, plates were mixed by brief shaking, incubated at 25° C. for 120 min for FITC-geldanamycin or 300 min for RNK04010, and fluorescence was measured using a PerkinElmer EnVision Plate Reader.

KRAS(G12C), sequence (P01116 1-188 isoform P01116-2 G12C): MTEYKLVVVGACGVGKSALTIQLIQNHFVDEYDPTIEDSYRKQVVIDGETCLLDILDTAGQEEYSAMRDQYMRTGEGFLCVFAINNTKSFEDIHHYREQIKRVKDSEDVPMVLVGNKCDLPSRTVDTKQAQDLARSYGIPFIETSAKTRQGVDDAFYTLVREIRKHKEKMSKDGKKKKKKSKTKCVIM

Row | SMILES | IC50 (KRAS(G12C)) [nM] | EC50 [1] [nM] | IC50 (HSP90a protein) [nM]
1 | C=CC(=O)N1CCN(c2nc(OC[C@@H]3CCN3C(=O)C3CCN(Cc4ccc(-n5c(C(N)=O)nnc5-c5cc(C(C)C)c(O)cc5O)cc4)CC3)nc3c2CCN(c2cccc4cccc(Cl)c24)C3)C[C@@H]1CC#N [Compound 190, 4-(4-((4-((S)-2-(((4-((S)-4-acryloyl-3-(cyanomethyl)piperazin-1-yl)-7-(8-chloronaphthalen-1-yl)-5,6,7,8-tetrahydropyrido[3,4-d]pyrimidin-2-yl)oxy)methyl)azetidine-1-carbonyl)piperidin-1-yl)methyl)phenyl)-5-(2,4-dihydroxy-5-isopropylphenyl)-4H-1,2,4-triazole-3-carboxamide] | 100 to 1000 | 100 to 1000 | –
2 | C=CC(=O)N1CCN(c2nc(OC[C@@H]3C[C@@H](NC(=O)C4CCN(Cc5ccc(-n6c(C(=O)NCCN(CC)CC)nnc6-c6cc(C(C)C)c(O)cc6O)cc5)CC4)CN3C)nc3c2CCN(c2cccc4cccc(Cl)c24)C3)C[C@@H]1CC#N [Compound 204, N-((3R,5S)-5-(((4-((S)-4-acryloyl-3-(cyanomethyl)piperazin-1-yl)-7-(8-chloronaphthalen-1-yl)-5,6,7,8-tetrahydropyrido[3,4-d]pyrimidin-2-yl)oxy)methyl)-1-methylpyrrolidin-3-yl)-1-(4-(3-((2-(diethylamino)ethyl)carbamoyl)-5-(2,4-dihydroxy-5-isopropylphenyl)-4H-1,2,4-triazol-4-yl)benzyl)piperidine-4-carboxamide] | – | > 1000 | < 100
3 | C=C(F)C(=O)N1CCN(c2nc(OCCN3CCN(C(=O)c4ccc(-n5c(O)nnc5-c5cc(C(C)C)c(O)cc5O)cc4)CC3)nc3c2CCN(c2cccc4cccc(Cl)c24)C3)C[C@@H]1CC#N [Compound 226] | – | > 1000 | < 100
4 | C=CC(=O)N1CCN(c2nc(OCCN3CCC(C(=O)N4CCC(CN5CCC(Cc6ccc(-n7c(O)nnc7-c7cc(O)c(C(C)C)cc7O)cc6)CC5)CC4)CC3)nc3c2CCN(c2cccc4cccc(Cl)c24)C3)C[C@@H]1CC#N [Compound 238, (S)-2-(1-acryloyl-4-(7-(8-chloronaphthalen-1-yl)-2-(2-(4-(4-((4-(4-(3-(2,5-dihydroxy-4-isopropylphenyl)-5-hydroxy-4H-1,2,4-triazol-4-yl)benzyl)piperidin-1-yl)methyl)piperidine-1-carbonyl)piperidin-1-yl)ethoxy)-5,6,7,8-tetrahydropyrido[3,4-d]pyrimidin-4-yl)piperazin-2-yl)acetonitrile] | 100 to 1000 | > 1000 | –
5 | C=CC(=O)N1CCN(c2nc(OCCN3CCC(C(=O)N4CCN(Cc5ccc(-n6c(C(=O)NC)nnc6-c6cc(C(C)C)c(O)cc6O)cc5)CC4)CC3)nc3c2CCN(c2cccc4cccc(Cl)c24)C3)C[C@@H]1CC#N [Compound 239, (S)-4-(4-((4-(1-(2-((4-(4-acryloyl-3-(cyanomethyl)piperazin-1-yl)-7-(8-chloronaphthalen-1-yl)-5,6,7,8-tetrahydropyrido[3,4-d]pyrimidin-2-yl)oxy)ethyl)piperidine-4-carbonyl)piperazin-1-yl)methyl)phenyl)-5-(2,4-dihydroxy-5-isopropylphenyl)-N-methyl-4H-1,2,4-triazole-3-carboxamide] | < 100 | 100 to 1000 | –
6 | C=CC(=O)N1CCN(c2nc(OCCN3CCC(C(=O)N4CCN(Cc5ccc(-n6c(C(=O)NCCN7CCN(S(C)(=O)=O)CC7)nnc6-c6cc(C(C)C)c(O)cc6O)cc5)CC4)CC3)nc3c2CCN(c2cccc4cccc(Cl)c24)C3)C[C@@H]1CC#N [Compound 242, (S)-4-(4-((4-(1-(2-((4-(4-acryloyl-3-(cyanomethyl)piperazin-1-yl)-7-(8-chloronaphthalen-1-yl)-5,6,7,8-tetrahydropyrido[3,4-d]pyrimidin-2-yl)oxy)ethyl)piperidine-4-carbonyl)piperazin-1-yl)methyl)phenyl)-5-(2,4-dihydroxy-5-isopropylphenyl)-N-(2-(4-(methylsulfonyl)piperazin-1-yl)ethyl)-4H-1,2,4-triazole-3-carboxamide] | < 100 | 100 to 1000 | –
7 | C=CC(=O)N1CCN(c2nc(OCCN3CCC(C(=O)N4CCN(CCNC(=O)c5nnc(-c6cc(C(C)C)c(O)cc6O)n5-c5ccccc5)CC4)CC3)nc3c2CCN(c2cccc4cccc(Cl)c24)C3)C[C@@H]1CC#N [Compound 243, (S)—N-(2-(4-(1-(2-((4-(4-acryloyl-3-(cyanomethyl)piperazin-1-yl)-7-(8-chloronaphthalen-1-yl)-5,6,7,8-tetrahydropyrido[3,4-d]pyrimidin-2-yl)oxy)ethyl)piperidine-4-carbonyl)piperazin-1-yl)ethyl)-5-(2,4-dihydroxy-5-isopropylphenyl)-4-phenyl-4H-1,2,4-triazole-3-carboxamide] | < 100 | 100 to 1000 | –
8 | C=CC(=O)N1CCN(c2nc(OCCN3CCC(N4CCN(C(=O)C5CCN(Cc6ccc(-n7c(C(N)=O)nnc7-c7cc(C(C)C)c(O)cc7O)cc6)CC5)CC4)CC3)nc3c2CCN(c2cccc4cccc(Cl)c24)C3)C[C@@H]1CC#N [Compound 249, (S)-4-(4-((4-(4-(1-(2-((4-(4-acryloyl-3-(cyanomethyl)piperazin-1-yl)-7-(8-chloronaphthalen-1-yl)-5,6,7,8-tetrahydropyrido[3,4-d]pyrimidin-2-yl)oxy)ethyl)piperidin-4-yl)piperazine-1-carbonyl)piperidin-1-yl)methyl)phenyl)-5-(2,4-dihydroxy-5-isopropylphenyl)-4H-1,2,4-triazole-3-carboxamide] | < 100 | 100 to 1000 | –
9 | C=CC(=O)N1CCN(c2nc(OC[C@@H]3CC[C@H](C(=O)N4CCN(C(=O)C5CCN(Cc6ccc(-n7c(O)nnc7-c7cc(C(C)C)c(O)cc7O)cc6)CC5)CC4)N3C)nc3c2CCN(c2cccc4cccc(Cl)c24)C3)C[C@@H]1CC#N [Compound 305, 2-[(2S)-4-[7-(8-chloronaphthalen-1-yl)-2-{[(2S,5R)-5-{4-[1-({4-[3-(2,4-dihydroxy-5-isopropylphenyl)-5-hydroxy-1,2,4-triazol-4-yl]phenyl}methyl)piperidine-4-carbonyl]piperazine-1-carbonyl}-1-methylpyrrolidin-2-yl]methoxy}-5H,6H,8H-pyri-do[3,4-d]pyrimidin-4-yl]-1-(prop-2-enoyl)piperazin-2-yl]acetonitrile] | – | 100 to 1000 | < 100
10 | C=CC(=O)N1CCN(c2nc(OC[C@@H]3CC[C@H](C(=O)N4CCN(C(=O)C5CCN(Cc6ccc(-n7c(O)nnc7-c7cc(C)c(O)cc7O)cc6)CC5)CC4)N3C)nc3c2CCN(c2cccc4cccc(Cl)c24)C3)C[C@@H]1CC#N [Compound 306, 2-[(2S)-4-[7-(8-chloronaphthalen-1-yl)-2-{[(2S,5R)-5-{4-[1-({4-[3-(2,4-dihydroxy-5-methylphenyl)-5-hydroxy-1,2,4-triazol-4-yl]phenyl}methyl)piperidine-4-carbonyl]piperazine-1-carbonyl}-1-methylpyrrolidin-2-yl]methoxy}-5H,6H,8H-pyrido [3,4-d]pyrimidin-4-yl]-1-(prop-2-enoyl)piperazin-2-yl]acetonitrile] | – | > 1000 | < 100
11 | C=CC(=O)N1CCN(c2nc(OC[C@@H]3CC[C@H](C(=O)N4CCN(C(=O)C5CCN(Cc6ccc(-n7c(O)nnc7-c7cc(C(C)C)c(O)cc7O)cc6)CC5)CC4)N3C)nc3c2CCN(c2cccc4cccc(Cl)c24)C3)C[C@@H]1CC#N [Compound 341, 2-[(2S)-4-[7-(8-chloronaphthalen-1-yl)-2-{[(2S,5R)-5-{4-[1-({4-[3-(2,4-dihydroxy-5-isopropylphenyl)-5-hydroxy-1,2,4-triazol-4-yl]phenyl}methyl)piperidine-4-carbonyl]piperazine-1-carbonyl}-1-methylpyrrolidin-2-yl]methoxy}-5H,6H,8H-pyri-do[3,4-d]pyrimidin-4-yl]-1-(prop-2-enoyl)piperazin-2-yl]acetonitrile] | < 100 | – | < 100

Source: patent US20230391772A1, “METHODS AND COMPOSITIONS FOR TARGETED PROTEIN DEGRADATION” (Ranok Therapeutics (Hangzhou) Co. Ltd., priority 2020, published 2023)
